Experimental data reported in patent publication US12331224B2, “Two-part epoxy compositions for adherent coatings of storage articles” (SWIMC LLC, priority 2019, dated 2025).

What was measured:
estrogen receptor = target: T1, estrogen receptor (Homo sapiens, UniProt P03372); assay: suitable in vitro assay of estrogenic agonist activity correlated to the MCF-7 assay; conditions: suitable in vitro assay correlated to MCF-7 assay
T1 sequence (P03372 1-595): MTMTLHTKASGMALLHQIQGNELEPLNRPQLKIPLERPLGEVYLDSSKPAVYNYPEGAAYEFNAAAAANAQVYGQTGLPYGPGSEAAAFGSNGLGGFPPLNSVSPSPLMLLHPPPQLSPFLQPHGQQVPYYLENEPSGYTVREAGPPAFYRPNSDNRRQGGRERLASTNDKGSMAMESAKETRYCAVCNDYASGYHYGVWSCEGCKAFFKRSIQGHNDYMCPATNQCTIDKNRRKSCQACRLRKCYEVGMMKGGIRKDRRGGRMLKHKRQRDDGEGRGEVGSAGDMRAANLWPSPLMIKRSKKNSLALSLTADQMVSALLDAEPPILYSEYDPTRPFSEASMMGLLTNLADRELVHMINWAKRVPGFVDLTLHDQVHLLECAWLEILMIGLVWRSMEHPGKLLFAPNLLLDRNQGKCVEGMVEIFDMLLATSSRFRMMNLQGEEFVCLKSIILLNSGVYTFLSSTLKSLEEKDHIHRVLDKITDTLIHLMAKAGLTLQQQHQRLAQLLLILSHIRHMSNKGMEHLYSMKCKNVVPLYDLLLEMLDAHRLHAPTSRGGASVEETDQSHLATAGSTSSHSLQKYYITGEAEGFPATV
Description: While not intending to be bound by any theory, it is believed that the positioning of one or more R^1 groups at an ortho position relative to the oxygen atom depicted in Formulas (I) and (IA) may be particularly beneficial in reducing or eliminating estrogenic agonist activity.

MCF-7, clone WS8, cells = assay: MCF-7 cell proliferation assay of estrogenic agonist activity; type: cell-based, human; conditions: logarithmic (base 10) Relative Proliferative Effect in MCF-7 assay; expected or measured values
Description: As used herein, the terms “estrogenic agonist activity” or “estrogenic activity” refer to the ability of a compound to mimic hormone-like activity through interaction with an endogenous estrogen receptor, typically an endogenous human estrogen receptor. […] The MCF-7 assay uses MCF-7, clone WS8, cells to measure whether and to what extent a substance induces cell proliferation via estrogen receptor (ER)-mediated pathways. The method is described in “Test Method Nomination: MCF-7 Cell Proliferation Assay of Estrogenic agonist activity” submitted for validation by CertiChem, Inc. to the National Toxicology Program Interagency Center for the Evaluation of Alternative Toxicological Methods (NICEA™) on Jan. 19, 2006 (available online at http://iccvam.niehs.nih.gov/methods/endocrine/endodocs/SubmDoc.pdf). As a brief summary of the assay, MCF-7, clone WS8, cells are maintained at 37° C. in RMPI (or Roswell Park Memorial Institute medium) containing Phenol Red (e.g., GIBCO Catalog Number 11875119) and supplemented with the indicated additives for routine culture. An aliquot of cells maintained at 37° C. are grown for 2 days in phenol-free media containing 5% charcoal stripped fetal bovine serum in a 25 cm^2 tissue culture flask. Using a robotic dispenser such as an epMotion 5070 unit, MCF-7 cells are then seeded at 400 cells per well in 0.2 ml of hormone-free culture medium in Corning 96-well plates. The cells are adapted for 3 days in the hormone-free culture medium prior to adding the chemical to be assayed for estrogenic agonist activity. The media containing the test chemical is replaced daily for 6 days. At the end of the 7-day exposure to the test chemical, the media is removed, the wells are washed once with 0.2 ml of HBSS (Hanks' Balanced Salt Solution), and then assayed to quantify amounts of DNA per well using a micro-plate modification of the Burton diphenylamine (DPA) assay, which is used to calculate the level of cell proliferation.
RPE is the ratio between the EC50 of the test chemical and the EC50 of the control substance 17-beta estradiol times 100, where EC50 is “effective concentration 50%” or half-maximum stimulation concentration for cell proliferation measured as total DNA in the MCF-7 assay.
Tables 1 and 2 provided below include some compounds and their expected or measured logarithmic RPE values in the MCF-7 assay.

[1] = Gel-time comparison of two-part epoxy compositions with curing agents; type: physicochemical; conditions: for Gel time: 1:1 stoichiometric mix, 100 g; for Difference in gel time: TMBPFDGE minus BADGE; for Gel-Time % increase: from BADGE to TMBPFDGE
Description: Two-part epoxy compositions of bisphenol A diglycidyl ether (BADGE) (e.g., molecular weight of approximately 340 g/mol) and tetramethyl bisphenol F diglycidyl ether (TMBPFDGE) were prepared and mixed with various amine-based curing agents to compare the respective gel times of the compositions. The BADGE and TMBPFDGE monomer epoxides (e.g., molecular weight of approximately 340.4 g/mol and 368.6 g/mol respectively) were reduced to approximately 90% weight solids with xylene solvent. Gel times were measured using 100 g mass samples with a Paul N. Gardner Co, Inc. gel time recorder model S-5154. The gel-time values reported are in minutes, along with the difference between BADGE and TMBPFDGE compositions using the same curing agent, and the percent increase in gel time from BADGE to TMBPFDGE.

[2] = curing agent ANACAMIDE 375A (polyamide)
[3] = curing agent ANACAMINE 503 (amidoamine)
[4] = curing agent ANACAMINE 2393 (cycloaliphatic amine)
[5] = curing agent CARDOLITE 3040 (phenalkamide)
[6] = curing agent CARDOLITE NC541 (phenalkamine)
[7] = curing agent GABEPRO GPM-830CB (mercaptan)
[8] = curing agent TETA, epoxy 90% solids in xylene

CCCC(c1cc(C(C)(C)C)c(O)cc1C)c1cc(C(C)(C)C)c(O)cc1C [4,4′-butylidenebis(2-t-butyl-5-methylphenol)]
estrogenic agonist activity (estrogen receptor): do not exhibit appreciable estrogenic agonist activity

O=S(=O)(c1ccc(O)cc1)c1ccc(O)cc1 [Bisphenol S]
Log RPE (MCF-7, clone WS8, cells): −2

Cc1cc(Cc2cc(C)cc(C3(C)CCCCC3)c2O)c(O)c(C2(C)CCCCC2)c1 [2,2′-Methylenebis(6-(1-methylcyclohexyl)-4-methylphenol]
Log RPE (MCF-7, clone WS8, cells): less than −4

CC(C)(C)c1cc(O)c(C(C)(C)C)cc1O [2,5-di-t-butylhydroquinone]
estrogenic agonist activity (estrogen receptor): do not exhibit appreciable estrogenic agonist activity

Cc1cc(Cc2cc(C)c(O)c(C)c2)cc(C)c1O [4,4′-methylenebis(2,6-dimethylphenol)]
estrogenic agonist activity (estrogen receptor): do not exhibit appreciable estrogenic agonist activity

CC(C)(c1ccc(OCC2CO2)cc1)c1ccc(OCC2CO2)cc1 (centres unmarked) [BADGE, bisphenol A diglycidyl ether, reference compound]
Gel time [1, 2]: 312 min | Gel time [1, 3]: 211 min | Gel time [1, 4]: 55 min | Gel time [1, 5]: 198 min | Gel time [1, 6]: 86 min | Gel time [1, 7]: 16 min | Gel time ([1]; curing agent PACM): 275 min | Gel time [1, 8]: 74 min

Cc1cc(Cc2cc(C)c(OCC3CO3)c(C)c2)cc(C)c1OCC1CO1 (centres unmarked) [TMBPFDGE, tetramethyl bisphenol F diglycidyl ether]
Difference in gel time [1, 2]: 454 min | Difference in gel time [1, 3]: 469 min | Difference in gel time [1, 4]: 343 min | Difference in gel time [1, 5]: 370 min | Difference in gel time [1, 6]: 206 min | Difference in gel time [1, 7]: 82 min | Difference in gel time ([1]; curing agent PACM): 510 min | Difference in gel time ([1]; curing agent TETA): 333 min | Gel time [1, 2]: 766 min | Gel time [1, 3]: 680 min | Gel time [1, 4]: 398 min | Gel time [1, 5]: 568 min | Gel time [1, 6]: 292 min | Gel time [1, 7]: 98 min | Gel time ([1]; curing agent PACM): 785 min | Gel time [1, 8]: 407 min | Gel-Time % increase [1, 2]: 146% | Gel-Time % increase [1, 3]: 222% | Gel-Time % increase [1, 4]: 624% | Gel-Time % increase [1, 5]: 187% | Gel-Time % increase [1, 6]: 240% | Gel-Time % increase [1, 7]: 513% | Gel-Time % increase ([1]; curing agent PACM): 185% | Gel-Time % increase ([1]; curing agent TETA): 450%

Cc1cc(Cc2cc(C)cc(C(C)(C)C)c2O)c(O)c(C(C)(C)C)c1 [2,2′-methylenebis(4-methyl-6-t-butylphenol)]
estrogenic agonist activity (estrogen receptor): do not exhibit appreciable estrogenic agonist activity

C[C@]12CC[C@@H]3c4ccc(O)cc4CC[C@H]3[C@@H]1CC[C@@H]2O [17β-estradiol]
Log RPE (MCF-7, clone WS8, cells): 2.00

CC(C)(C)c1cc(Cc2cc(C(C)(C)C)c(O)c(C(C)(C)C)c2)cc(C(C)(C)C)c1O [4,4′-methylenebis(2,6-di-t-butylphenol)]
estrogenic agonist activity (estrogen receptor): do not exhibit appreciable estrogenic agonist activity

Oc1ccc(Cc2ccc(O)cc2)cc1 [Bisphenol F]
Log RPE (MCF-7, clone WS8, cells): −2
